Results taken from patent publication US4409210A, “Antibiotic compound” (priority 1982, dated 1983).
Converted amounts (≈) assume the structure as drawn.

Legend:
Type in all cases: cell-based
[1] = tested on: Clostridium acidiurici A9560; assay: MIC, serial two-fold dilution method (anaerobic); conditions: Gottschalkia acidurici; Clostridium acidiurici A9560; GAM agar medium; inoculum 10^7-10^8; read-out: minimum inhibitory concentration (MIC)
[2] = tested on: Clostridium chauvoei A9561; assay: MIC, serial two-fold dilution method (anaerobic); conditions: Clostridium chauvoei A9561; GAM agar medium; inoculum 10^7-10^8; read-out: minimum inhibitory concentration (MIC)
Procedure: (§1) The minimum inhibitory concentration (MIC) of Bu-2517 was determined for a variety of aerobic and anaerobic bacteria by the serial two-fold dilution method using a multi-inoculating apparatus. Mueller-Hinton agar was generally used for aerobic bacteria, GC medium (Eiken) for fastidious aerobic organisms such as streptococci, Neisseria and Haemophilus species, and GAM agar medium (Nissui) for anaerobic bacteria. The inoculum size was adjusted to 10^6 CFU/ml for streptococci, Neisseria and Haemophilus species, 10^4 for other aerobic bacteria and 10^7 -10^8 for all anaerobic organisms. Amphomycin, ampicillin, chloramphenicol, clindamycin, erthromycin, kanamycin and vancomycin were used as reference antibiotics.

[3] = tested on: Clostridium difficile A21675; assay: MIC, serial two-fold dilution method (anaerobic); conditions: Clostridioides difficile; Clostridium difficile A21675; GAM agar medium; inoculum 10^7-10^8; read-out: minimum inhibitory concentration (MIC)
Procedure: as §1

[4] = tested on: Clostridium difficile A21972; assay: MIC, serial two-fold dilution method (anaerobic); conditions: Clostridioides difficile; Clostridium difficile A21972; GAM agar medium; inoculum 10^7-10^8; read-out: minimum inhibitory concentration (MIC)
Procedure: as §1

[5] = tested on: Clostridium septicum A21869; assay: MIC, serial two-fold dilution method (anaerobic); conditions: Clostridium septicum A21869; GAM agar medium; inoculum 10^7-10^8; read-out: minimum inhibitory concentration (MIC)
Procedure: as §1

[6] = tested on: Clostridium cylindrosporum A9562; assay: MIC, serial two-fold dilution method (anaerobic); conditions: Clostridium cylindrosporum A9562; GAM agar medium; inoculum 10^7-10^8; read-out: minimum inhibitory concentration (MIC)
[7] = tested on: Clostridium perfringens A9635; assay: microbe, parasite or virus in culture; conditions: Clostridium perfringens, A9635, read-out: minimum inhibitory concentration (MIC)
[8] = tested on: Clostridium perfringens A22787; assay: microbe, parasite or virus in culture; conditions: Clostridium perfringens, A22787, read-out: minimum inhibitory concentration (MIC)
[9] = tested on: Clostridium ramosum A21970; assay: MIC, serial two-fold dilution method (anaerobic); conditions: Thomasclavelia ramosa; Clostridium ramosum A21970; GAM agar medium; inoculum 10^7-10^8; read-out: minimum inhibitory concentration (MIC)
[10] = tested on: Propionibacterium acnes A21933; assay: MIC, serial two-fold dilution method (anaerobic); conditions: Cutibacterium acnes; Propionibacterium acnes A21933; GAM agar medium; inoculum 10^7-10^8; read-out: minimum inhibitory concentration (MIC)
[11] = tested on: Propionibacterium acnes A21953; assay: MIC, serial two-fold dilution method (anaerobic); conditions: Cutibacterium acnes; Propionibacterium acnes A21953; GAM agar medium; inoculum 10^7-10^8; read-out: minimum inhibitory concentration (MIC)
[12] = tested on: Propionibacterium acnes A22650; assay: MIC, serial two-fold dilution method (anaerobic); conditions: Cutibacterium acnes; Propionibacterium acnes A22650; GAM agar medium; inoculum 10^7-10^8; read-out: minimum inhibitory concentration (MIC)
[13] = tested on: Peptostreptococcus anaerobius A21905; assay: MIC, serial two-fold dilution method (anaerobic); conditions: Peptostreptococcus anaerobius A21905; GAM agar medium; inoculum 10^7-10^8; read-out: minimum inhibitory concentration (MIC)
[14] = tested on: Peptostreptococcus intermedius A21881; assay: MIC, serial two-fold dilution method (anaerobic); conditions: Peptostreptococcus intermedius A21881; GAM agar medium; inoculum 10^7-10^8; read-out: minimum inhibitory concentration (MIC)
[15] = tested on: Peptococcus magnas A21676; assay: MIC, serial two-fold dilution method (anaerobic); conditions: Peptococcus magnas A21676; GAM agar medium; inoculum 10^7-10^8; read-out: minimum inhibitory concentration (MIC)
[16] = tested on: Bacteroides fragilis CUH-9; assay: MIC, serial two-fold dilution method (anaerobic); conditions: CUH9; Bacteroides fragilis CUH-9; GAM agar medium; inoculum 10^7-10^8; read-out: minimum inhibitory concentration (MIC)
[17] = tested on: Bacteroides fragilis CUH-24; assay: MIC, serial two-fold dilution method (anaerobic); conditions: CUH24; Bacteroides fragilis CUH-24; GAM agar medium; inoculum 10^7-10^8; read-out: minimum inhibitory concentration (MIC)
[18] = tested on: Bacteroides fragilis A20926; assay: MIC, serial two-fold dilution method (anaerobic); conditions: Bacteroides fragilis A20926; GAM agar medium; inoculum 10^7-10^8; read-out: minimum inhibitory concentration (MIC)
[19] = tested on: Bacteroides fragilis A20928-1; assay: MIC, serial two-fold dilution method (anaerobic); conditions: A209281; Bacteroides fragilis A20928-1; GAM agar medium; inoculum 10^7-10^8; read-out: minimum inhibitory concentration (MIC)
[20] = tested on: Bacteroides fragilis A20929; assay: MIC, serial two-fold dilution method (anaerobic); conditions: Bacteroides fragilis A20929; GAM agar medium; inoculum 10^7-10^8; read-out: minimum inhibitory concentration (MIC)
[21] = tested on: Bacteroides fragilis A21900; assay: MIC, serial two-fold dilution method (anaerobic); conditions: Bacteroides fragilis A21900; GAM agar medium; inoculum 10^7-10^8; read-out: minimum inhibitory concentration (MIC)
[22] = tested on: Bacteroides fragilis A22053; assay: MIC, serial two-fold dilution method (anaerobic); conditions: Bacteroides fragilis A22053; GAM agar medium; inoculum 10^7-10^8; read-out: minimum inhibitory concentration (MIC)
[23] = tested on: Bacteroides fragilis A22533; assay: MIC, serial two-fold dilution method (anaerobic); conditions: Bacteroides fragilis A22533; GAM agar medium; inoculum 10^7-10^8; read-out: minimum inhibitory concentration (MIC)
[24] = tested on: Bacteroides fragilis A22695; assay: MIC, serial two-fold dilution method (anaerobic); conditions: Bacteroides fragilis A22695; GAM agar medium; inoculum 10^7-10^8; read-out: minimum inhibitory concentration (MIC)
[25] = tested on: Bacteroides ovatus A22400; assay: MIC, serial two-fold dilution method (anaerobic); conditions: Bacteroides ovatus A22400; GAM agar medium; inoculum 10^7-10^8; read-out: minimum inhibitory concentration (MIC)
[26] = tested on: Fusobacterium necrophorum A20013; assay: MIC, serial two-fold dilution method (anaerobic); conditions: Fusobacterium necrophorum A20013; GAM agar medium; inoculum 10^7-10^8; read-out: minimum inhibitory concentration (MIC)
[27] = tested on: Fusobacterium nucleatum A21906; assay: MIC, serial two-fold dilution method (anaerobic); conditions: Fusobacterium nucleatum A21906; GAM agar medium; inoculum 10^7-10^8; read-out: minimum inhibitory concentration (MIC)
[28] = tested on: Fusobacterium varium ATCC 8501; assay: MIC, serial two-fold dilution method (anaerobic); conditions: ATCC8501; Fusobacterium varium ATCC 8501; GAM agar medium; inoculum 10^7-10^8; read-out: minimum inhibitory concentration (MIC)
[29] = tested on: Veillonella alcalescens A21914-1; assay: MIC, serial two-fold dilution method (anaerobic); conditions: Veillonella parvula, A219141; Veillonella alcalescens A21914-1; GAM agar medium; inoculum 10^7-10^8; read-out: minimum inhibitory concentration (MIC)
[30] = tested on: Veillonella parvula A20010; assay: MIC, serial two-fold dilution method (anaerobic); conditions: Veillonella parvula A20010; GAM agar medium; inoculum 10^7-10^8; read-out: minimum inhibitory concentration (MIC)

SMILES: CCC[C@@H]1C[C@@H](C(=O)N[C@@H]([C@H]2O[C@H](SC)[C@H](O)[C@@H](O)[C@H]2O)[C@H](C)Cl)N(C)C1 [Clindamycin]
- MIC [1]: 0.8 µg/mL (≈ 1.88 µM)
- MIC [2]: 0.025 µg/mL (≈ 0.0588 µM)
- MIC [3]: 100 µg/mL (≈ 235 µM)
- MIC [4]: 0.025 µg/mL (≈ 0.0588 µM)
- MIC [5]: 0.8 µg/mL (≈ 1.88 µM)
- MIC [6]: 0.8 µg/mL (≈ 1.88 µM)
- MIC [7]: 0.025 µg/mL (≈ 0.0588 µM)
- MIC [8]: 50 µg/mL (≈ 118 µM)
- MIC [9]: 0.025 µg/mL (≈ 0.0588 µM)
- MIC [10]: 0.8 µg/mL (≈ 1.88 µM)
- MIC [11]: 0.8 µg/mL (≈ 1.88 µM)
- MIC [12]: 0.1 µg/mL (≈ 0.235 µM)
- MIC [13]: 0.2 µg/mL (≈ 0.471 µM)
- MIC [14]: 0.2 µg/mL (≈ 0.471 µM)
- MIC [15]: 0.05 µg/mL (≈ 0.118 µM)
- MIC [16]: 50 µg/mL (≈ 118 µM)
- MIC [17]: > 100 µg/mL
- MIC [18]: 0.025 µg/mL (≈ 0.0588 µM)
- MIC [19]: 0.025 µg/mL (≈ 0.0588 µM)
- MIC [20]: 3.1 µg/mL (≈ 7.29 µM)
- MIC [21]: 1.6 µg/mL (≈ 3.76 µM)
- MIC [22]: 0.2 µg/mL (≈ 0.471 µM)
- MIC [23]: 0.025 µg/mL (≈ 0.0588 µM)
- MIC [24]: 0.1 µg/mL (≈ 0.235 µM)
- MIC [25]: 6.3 µg/mL (≈ 14.8 µM)
- MIC [26]: 12.5 µg/mL (≈ 29.4 µM)
- MIC [27]: 1.6 µg/mL (≈ 3.76 µM)
- MIC [28]: 1.6 µg/mL (≈ 3.76 µM)
- MIC [29]: 0.013 µg/mL (≈ 0.0306 µM)
- MIC [30]: 0.4 µg/mL (≈ 0.941 µM)
